Results on 21 compounds are retold here after US8163793B2, “Proline derivatives” (Hoffman-La Roche Inc., priority 2009, dated 2012).

Experiment [1] addresses Cathepsin S (UniProt P25774). The experiment in a line: Cathepsin enzyme inhibition assay (fluorogenic peptide substrate Z-Val-Val-Arg-AMC), Cathepsin S. It counts as biochemical, human and mouse. As to conditions: enzyme 1 nM, substrate 20 μM, pH 6.5; read-out: CatS IC50. In a few lines:
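Compounds were combined with 1 nM human or mouse enzyme, and substrate then started the reaction. The buffer was potassium phosphate (100 mM, pH 6.5) containing EDTA-Na 5 mM, Triton X-100 0.001% and […] 5 mM.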

Experiment [2] deals with Cat L (UniProt P07711). In words: Cathepsin enzyme inhibition assay (fluorogenic peptide substrate Z-Val-Val-Arg-AMC), Cathepsin L. The note with it: enzyme 1 nM, substrate 20 μM, pH 6.5; read-out: CatL IC50. The class given is biochemical, human and mouse. In a few lines:
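Fluorogenic cleavage of Z-Val-Val-Arg-AMC (20 μM) by 1 nM Cat L was monitored at ex 360/em 465 nm for 20 min, the linear phase. The buffer was 100 mM potassium phosphate pH 6.5 with 5 mM EDTA and DTT. IC50 values were derived by standard methods, in μM.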

Consider `C[C@H](Oc1ccc(S(=O)(=O)[C@@H]2C[C@H](C(=O)NC3(C#N)CC3)N(C(=O)C3(C(F)(F)F)CC3)C2)c(Cl)c1)C(F)(F)F` [Example 184, (2R,4R)-4-[2-Chloro-4-((S)-2,2,2-trifluoro-1-methyl-ethoxy)-benzenesulfonyl]-1-(1-trifluoromethyl-cyclopropanecarbonyl)-pyrrolidine-2-carboxylic acid (1-cyano-cyclopropyl)-amide], for which the half-maximal inhibitory concentration (IC50) in experiment [1] was 32 nM; in experiment [2] it was at least 25000 nM.
The corresponding values for `N#CC1(NC(=O)[C@@H]2C[C@@H](S(=O)(=O)c3ccc(Cl)cc3Cl)CN2c2ncccc2C(F)(F)F)CC1` [Example 188, (2S,4R)-4-(2,4-Dichloro-benzenesulfonyl)-1-(3-trifluoromethyl-pyridin-2-yl)-pyrrolidine-2-carboxylic acid (1-cyano-cyclopropyl)-amide] are 6.4 nM and 16700 nM.
The like results for `N#CC1(NC(=O)[C@H]2C[C@@H](S(=O)(=O)c3ccc(Cl)cc3Cl)CN2c2ncccc2C(F)(F)F)CC1` [Example 189, (2R,4R)-4-(2,4-Dichloro-benzenesulfonyl)-1-(3-trifluoromethyl-pyridin-2-yl)-pyrrolidine-2-carboxylic acid (1-cyano-cyclopropyl)-amide] were, in that order, 665 nM and at least 25000 nM.
The like results for `CCN1CCN(c2ccc(S(=O)(=O)[C@@H]3C[C@@H](C(=O)NC4(C#N)CC4)N(c4ncccc4C(F)(F)F)C3)c(Cl)c2)CC1` [Example 190, (2S,4R)-4-[2-Chloro-4-(4-ethyl-piperazin-1-yl)-benzenesulfonyl]-1-(3-trifluoromethyl-pyridin-2-yl)-pyrrolidine-2-carboxylic acid (1-cyano-cyclopropyl)-amide] were, in that order, 1.5 nM and 5160 nM.
Regarding `CCN1CCN(c2ccc(S(=O)(=O)[C@@H]3C[C@H](C(=O)NC4(C#N)CC4)N(c4ncccc4C(F)(F)F)C3)c(Cl)c2)CC1` [Example 191, (2R,4R)-4-[2-Chloro-4-(4-ethyl-piperazin-1-yl)-benzenesulfonyl]-1-(3-trifluoromethyl-pyridin-2-yl)-pyrrolidine-2-carboxylic acid (1-cyano-cyclopropyl)-amide], the concentration for half-maximal inhibition (IC50) in experiment [1] is 107 nM; in experiment [2], at least 25000 nM.
The corresponding values for `Cc1cc(N2C[C@H](S(=O)(=O)c3ccccc3C(F)(F)F)C[C@H]2C(=O)NC2(C#N)CC2)n(-c2ccccc2)n1` [Example 192, (2S,4R)-1-(5-Methyl-2-phenyl-2H-pyrazol-3-yl)-4-(2-trifluoromethyl-benzenesulfonyl)-pyrrolidine-2-carboxylic acid (1-cyano-cyclopropyl)-amide] are 0.5 nM and 43700 nM.
The like results for `Cc1cc(N2C[C@H](S(=O)(=O)c3ccccc3C(F)(F)F)C[C@H]2C(=O)NC2(C#N)CC2)n(-c2ccnc(Cl)c2)n1` [Example 193, (2S,4R)-1-[2-(2-Chloro-pyridin-4-yl)-5-methyl-2H-pyrazol-3-yl]-4-(2-trifluoromethyl-benzenesulfonyl)-pyrrolidine-2-carboxylic acid (1-cyano-cyclopropyl)-amide] were, in that order, 0.2 nM and 28500 nM.
The corresponding values for `Cc1cc(N2C[C@H](S(=O)(=O)c3ccccc3C(F)(F)F)C[C@H]2C(=O)NC2(C#N)CC2)n(-c2ccc(Cl)cc2)n1` [Example 194, (2S,4R)-1-[2-(4-Chloro-phenyl)-5-methyl-2H-pyrazol-3-yl]-4-(2-trifluoromethyl-benzenesulfonyl)-pyrrolidine-2-carboxylic acid (1-cyano-cyclopropyl)-amide] are 0.4 nM and 16600 nM.
Consider `Cc1cc(N2C[C@H](S(=O)(=O)c3ccccc3C(F)(F)F)C[C@H]2C(=O)NC2(C#N)CC2)n(-c2ccc(F)cc2)n1` [Example 195, (2S,4R)-1-[2-(4-Fluoro-phenyl)-5-methyl-2H-pyrazol-3-yl]-4-(2-trifluoromethyl-benzenesulfonyl)-pyrrolidine-2-carboxylic acid (1-cyano-cyclopropyl)-amide], for which the half-inhibitory concentration (IC50) was 3.6 nM in experiment [1] and at least 25000 nM in experiment [2].
The like results for `Cc1cc(N2C[C@H](S(=O)(=O)c3ccccc3C(F)(F)F)C[C@H]2C(=O)NC2(C#N)CC2)n(-c2cc[nH]c(=O)c2)n1` [Example 196, (2S,4R)-1-[5-Methyl-2-(2-oxo-1,2-dihydro-pyridin-4-yl)-2H-pyrazol-3-yl]-4-(2-trifluoromethyl-benzenesulfonyl)-pyrrolidine-2-carboxylic acid (1-cyano-cyclopropyl)-amide] were, in that order, 0.3 nM and 41400 nM.
The like results for `C[C@H](Oc1ccc(S(=O)(=O)[C@@H]2C[C@@H](C(=O)NC3(C#N)CC3)N(C(=O)C3CC3)C2)c(Cl)c1)C(F)(F)F` [Example 197, (2S,4R)-4-[2-Chloro-4-((S)-2,2,2-trifluoro-1-methyl-ethoxy)-benzenesulfonyl]-1-cyclopropanecarbonyl-pyrrolidine-2-carboxylic acid (1-cyano-cyclopropyl)-amide] were, in that order, 0.9 nM and 19000 nM.
The like results for `C[C@H](Oc1ccc(S(=O)(=O)[C@@H]2C[C@H](C(=O)NC3(C#N)CC3)N(C(=O)C3CC3)C2)c(Cl)c1)C(F)(F)F` [Example 198, (2R,4R)-4-[2-Chloro-4-((S)-2,2,2-trifluoro-1-methyl-ethoxy)-benzenesulfonyl]-1-cyclopropanecarbonyl-pyrrolidine-2-carboxylic acid (1-cyano-cyclopropyl)-amide] were, in that order, 27 nM and at least 25000 nM.
Turning to `C[C@H](Oc1ccc(S(=O)(=O)[C@@H]2C[C@@H](C(=O)NC3(C#N)CC3)N(C(=O)C3(C)CC3)C2)c(Cl)c1)C(F)(F)F` [Example 199, (2S,4R)-4-[2-Chloro-4-((S)-2,2,2-trifluoro-1-methyl-ethoxy)-benzenesulfonyl]-1-(1-methyl-cyclopropanecarbonyl)-pyrrolidine-2-carboxylic acid (1-cyano-cyclopropyl)-amide], the values for the IC50 in experiment [1] and in experiment [2] were 0.5 nM and 7740 nM, respectively.
The like results for `C[C@H](Oc1ccc(S(=O)(=O)[C@@H]2C[C@H](C(=O)NC3(C#N)CC3)N(C(=O)C3(C)CC3)C2)c(Cl)c1)C(F)(F)F` [Example 200, (2R,4R)-4-[2-Chloro-4-((S)-2,2,2-trifluoro-1-methyl-ethoxy)-benzenesulfonyl]-1-(1-methyl-cyclopropanecarbonyl)-pyrrolidine-2-carboxylic acid (1-cyano-cyclopropyl)-amide] were, in that order, 46.7 nM and at least 25000 nM.
The like results for `N#CC1(NC(=O)[C@@H]2C[C@@H](S(=O)(=O)c3ccc(OC4COC4)cc3Cl)CN2C(=O)C2(C(F)(F)F)CC2)CC1` [Example 201, (2S,4R)-4-[2-Chloro-4-(oxetan-3-yloxy)-benzenesulfonyl]-1-(1-trifluoromethyl-cyclopropanecarbonyl)-pyrrolidine-2-carboxylic acid (1-cyano-cyclopropyl)-amide] were, in that order, 3.4 nM and at least 25000 nM.
The corresponding values for `N#CC1(NC(=O)[C@@H]2C[C@@H](S(=O)(=O)c3ccccc3C(F)(F)F)CN2C(=O)C2(c3ccc(Cl)cc3)CC2)CC1` [Example 202, (2S,4R)-1-[1-(4-Chloro-phenyl)-cyclopropanecarbonyl]-4-(2-trifluoromethyl-benzenesulfonyl)-pyrrolidine-2-carboxylic acid (1-cyano-cyclopropyl)-amide] are 0.1 nM and 606 nM.
For `C[C@H](Oc1ccc(S(=O)(=O)[C@@H]2C[C@@H](C(=O)NC3(C#N)CC3)N(C(=O)C(C)(C)C)C2)c(Cl)c1)C(F)(F)F` [Example 203, (2S,4R)-4-[2-Chloro-4-((S)-2,2,2-trifluoro-1-methyl-ethoxy)-benzenesulfonyl]-1-(2,2-dimethyl-propionyl)-pyrrolidine-2-carboxylic acid (1-cyano-cyclopropyl)-amide], the IC50 was 0.8 nM in experiment [1] and 9330 nM in experiment [2].
The like results for `C[C@H](Oc1ccc(S(=O)(=O)[C@@H]2C[C@H](C(=O)NC3(C#N)CC3)N(C(=O)C(C)(C)C)C2)c(Cl)c1)C(F)(F)F` [Example 204, (2R,4R)-4-[2-Chloro-4-((S)-2,2,2-trifluoro-1-methyl-ethoxy)-benzenesulfonyl]-1-(2,2-dimethyl-propionyl)-pyrrolidine-2-carboxylic acid (1-cyano-cyclopropyl)-amide] were, in that order, 205 nM and at least 25000 nM.
For `N#CC1(NC(=O)[C@@H]2C[C@@H](S(=O)(=O)c3ccccc3C(F)(F)F)CN2C(=O)C2(C(F)(F)F)CC2)CC1` [Example 205, (2S,4R)-4-(2-Trifluoromethyl-benzenesulfonyl)-1-(1-trifluoromethyl-cyclopropanecarbonyl)-pyrrolidine-2-carboxylic acid (1-cyano-cyclopropyl)-amide], the IC50 turned out to be 0.2 nM in experiment [1] and 72000 nM in experiment [2].
Take `N#CC1(NC(=O)[C@@H]2C[C@@H](S(=O)(=O)c3ccccc3C(F)(F)F)CN2C(=O)CC(F)(F)F)CC1` [Example 206, (2S,4R)-4-(2-Trifluoromethyl-benzenesulfonyl)-1-(3,3,3-trifluoro-propionyl)-pyrrolidine-2-carboxylic acid (1-cyano-cyclopropyl)-amide]: the concentration for half-maximal inhibition (IC50) was 0.2 nM in experiment [1] and at least 25000 nM in experiment [2].
For the compound `CC1(C(=O)N2C[C@H](S(=O)(=O)c3ccccc3C(F)(F)F)C[C@H]2C(=O)NC2(C#N)CC2)CC1` [Example 207, (2S,4R)-1-(1-Methyl-cyclopropanecarbonyl)-4-(2-trifluoromethyl-benzenesulfonyl)-pyrrolidine-2-carboxylic acid (1-cyano-cyclopropyl)-amide], the concentration for half-maximal inhibition (IC50) is 0.3 nM in experiment [1] and at least 25000 nM in experiment [2].
